Measurements: PubChem BioAssay (NCI)
“And” between values parts separate entries of the source, which are not always exact repeats. Equal values may be shown once.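 All cell lines were grown in 96-well plates and treated with compound for 48 hours. GI50 is the concentration that inhibits growth by half. TGI marks complete inhibition of growth.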 Where a SMILES comes first, the peptide text is derived from it. [ ]: non-standard residue; d: D form. The star is where a group is joined. Phe(4-NO2) = N[CH](Cc1ccc([N+](=O)[O-])cc1)C(=O)O; Boc = CC(C)(C)OC(=O)*

Key:
Assay in all cases: NCI anticancer screen, dose series, 48 h
EKVX NSCLC = system: EKVX NSCLC
MDA-MB-435 = system: MDA-MB-435
NCI-H460 lung = system: NCI-H460 lung
OVCAR-5 ovarian = system: OVCAR-5 ovarian
PC-3 prostate = system: PC-3 prostate
SR leukemia = system: SR leukemia
SW-620 colon = system: SW-620 colon
TK-10 renal = system: TK-10 renal
U251 CNS = system: U251 CNS
UACC-62 melanoma = system: UACC-62 melanoma

Structure (SMILES) | TGI (EKVX NSCLC) | TGI (MDA-MB-435) | TGI (NCI-H460 lung) | TGI (OVCAR-5 ovarian) | TGI (PC-3 prostate) | TGI (SR leukemia) | TGI (SW-620 colon) | TGI (TK-10 renal) [µM] | TGI (U251 CNS) | TGI (UACC-62 melanoma) | GI50 (EKVX NSCLC) [µM] | GI50 (MDA-MB-435) [µM] | GI50 (NCI-H460 lung) [µM] | GI50 (OVCAR-5 ovarian) [µM] | GI50 (PC-3 prostate) [µM] | GI50 (SR leukemia) [µM] | GI50 (SW-620 colon) [µM] | GI50 (TK-10 renal) [µM] | GI50 (U251 CNS) [µM] | GI50 (UACC-62 melanoma) [µM]
CC1=C(C(=O)Nc2ccccc2)C2(CCCCC2)C(C#N)=C(SCC(=O)Nc2ccc(Br)cc2)N1 | 7.81 µM | 29.6 µM | 11.4 µM | 14.6 µM | 7.96 µM | 6.11 µM | > 100 µM | > 45.4 | 15.3 µM | > 87.3 µM | – | – | – | – | – | – | – | – | – | –
COC(=O)C1OC(O[C@H]2CC[C@]3(C)[C@H]4CC=C5[C@@H]6CC(C)(C)CC[C@]6(C(=O)OC6OCC(O)C(O)C6OC6OC(C)C(OC7OCC(O)C(O)C7O)C(O)C6O)CC[C@@]5(C)[C@]4(C)CC[C@H]3C2(C)C)C(O)C(O)C1O (some centres not stated) | 33.7 µM and 32 µM | 33.8 µM and 32.1 µM | > 100 µM and 43.8 µM | 31.4 µM and 42.8 µM | 27.6 µM and 29.5 µM | 32 µM and 24.9 µM | 39.5 µM and 48.7 µM | – | 33.3 µM and 33.8 µM | 32 µM and 32.5 µM | – | – | – | – | – | – | – | – | – | –
Cc1ccc(NC(=O)c2cc(S(=O)(=O)Nc3nc4ncccc4[nH]3)c(SSc3cc(Cl)c(C(=O)Nc4ccc(C)cc4)cc3S(=O)(=O)Nc3nc4ncccc4[nH]3)cc2Cl)cc1 | > 100 µM | > 100 µM | > 100 µM | > 100 µM | > 100 µM | > 100 µM | > 100 µM | > 100 | > 100 µM | > 100 µM | – | – | – | – | – | – | – | – | – | –
CCOC(=O)c1ccc(N=c2sc3ccccc3nc2Nc2ccc(C(=O)OCC)cc2)cc1 | > 100 µM | > 100 µM | > 100 µM | > 100 µM | > 100 µM | > 100 µM | > 100 µM | > 100 | > 100 µM | > 100 µM | – | – | – | – | – | – | – | – | – | –
COc1cc2c(cc1OCCCC(=O)Nc1ccc3ccc4cccc5ccc1c3c45)N=C[C@@H]1CCCN1C2=O | 0.169 µM | 3.07 µM | 0.31 µM | < 0.0506 µM | 6.69 µM | – | 0.0483 µM | 0.237 | > 100 µM | 0.0263 µM | 0.0299 | 1.61 | < 0.0484 | < 0.01 | 0.222 | < 0.01 | < 0.0126 | 0.0384 | < 0.01 | < 0.01
CC(=O)OCc1ccc2oc(=O)c(C(=O)Oc3ccccc3)cc2c1 | > 100 µM | > 100 µM | > 100 µM | > 100 µM | 34.5 µM | > 100 µM | > 100 µM | 62.8 | > 100 µM | 38.6 µM | – | – | – | – | – | – | – | – | – | –
CNC(=O)CCC(NC(=O)OC(C)(C)C)C(=O)NC(Cc1ccc([N+](=O)[O-])cc1)C(=O)NCC(=O)NC (configuration not stated) (Boc-Glu(NHMe)-[Phe(4-NO2)]-Gly-NHMe; configuration not given here) | > 100 µM | > 100 µM | > 100 µM | > 100 µM | > 100 µM | > 100 µM | > 100 µM | > 100 | > 100 µM | > 100 µM | – | – | – | – | – | – | – | – | – | –
CCCCCCCCCCCCCCCCCCN(C)CC(COP(=O)([O-])OCC[N+](C)(C)C)OC (configuration not stated) | 48.2 µM | 97 µM | 12.2 µM | 11.1 µM | 32.9 µM | 28.6 µM | 47 µM | 8.46 | 10.1 µM | 32.9 µM | – | – | – | – | – | – | – | – | – | –
O=C1Oc2cc(O)cc(/C=C/c3ccc(O)cc3)c2[C@@]12c1c(O)cc(O)cc1OC2c1cccc(O)c1 (some centres not stated) | > 100 µM | 66.1 µM | 59.6 µM | 92.4 µM | > 100 µM | > 100 µM | – | > 100 | > 100 µM | 68 µM | – | – | – | – | – | – | – | – | – | –
O=C(NCCCCCCNC(=O)c1cc(-c2ccccc2)nc2ccccc12)c1cc(-c2ccccc2)nc2ccccc12 | > 100 µM | > 100 µM | > 100 µM | > 100 µM | > 100 µM | > 100 µM | > 100 µM | > 100 | > 100 µM | > 100 µM | – | – | – | – | – | – | – | – | – | –
C=C(Br)CNC(=O)CCC(=O)NCC(=C)Br | > 100 µM | > 100 µM | > 100 µM | > 100 µM | > 100 µM | > 100 µM | > 100 µM | > 100 | > 100 µM | > 100 µM | – | – | – | – | – | – | – | – | – | –
C=C(C)[C@@H]1CCC2=C[C@H](OC2=O)[C@@]2(C)C[C@@H]2C2=CC(C)=C(O2)[C@H]1O | > 75 µM | > 75 µM | > 75 µM | > 75 µM | > 75 µM | > 75 µM | > 75 µM | > 75 | > 75 µM | > 75 µM | – | – | – | – | – | – | – | – | – | –
N[C@H]1CCCC[C@@H]1N1C(=O)c2ccccc2C1(O)c1ccc(Cl)cc1 (some centres not stated) | 30.1 µM | 21.1 µM | 25.2 µM | 28.6 µM | 24.4 µM | 29.9 µM | 24.2 µM | 26 | 26.6 µM | 25.9 µM | – | – | – | – | – | – | – | – | – | –
O=[N+]([O-])c1cc(-c2nc(-c3ccccc3)c(-c3ccccc3)[nH]2)c(O)c([N+](=O)[O-])c1 | 58.9 µM | 95.3 µM | 48.3 µM | 50.3 µM | 44.3 µM | 58.7 µM | 90.8 µM | 65.8 | 29.5 µM | 33.8 µM | – | – | – | – | – | – | – | – | – | –
O=[N+]([O-])c1ccc(N/N=C/c2ccc(OCCCCCCCCCCCO)cc2)c([N+](=O)[O-])c1 | 52.1 µM | 11.7 µM | 12.1 µM | > 56.1 µM | 14.7 µM | 8.94 µM | > 100 µM | 33.7 | 10.7 µM | 7.74 µM | – | – | – | – | – | – | – | – | – | –
C[C@@H]1CC[C@@H]2[C@@H](C1)O[C@@H]([C@H](C)OCc1ccccc1)SC2(C)C | > 100 µM | > 100 µM | 53.5 µM | 31.7 µM | > 100 µM | 35.6 µM | 36.3 µM | > 100 | 33.5 µM | > 100 µM | – | – | – | – | – | – | – | – | – | –
COc1ccc(C(=O)/C=C/c2cc(O)c(O)c(F)c2F)c(OC)c1 | > 100 µM | 82.9 µM | 22.8 µM | 95.7 µM | 40.6 µM | 26.8 µM | > 100 µM | 88 | 32.1 µM | 42.8 µM | – | – | – | – | – | – | – | – | – | –
N#Cc1cnc(N)nc1NCC1(CO)CC(CCc2ccccc2)C1 (configuration not stated) | > 100 µM | > 100 µM | > 100 µM | > 100 µM | > 100 µM | > 100 µM | > 100 µM | > 100 | > 100 µM | > 100 µM | – | – | – | – | – | – | – | – | – | –
N#Cc1c(N)nc(Sc2ccccc2N)c(C#N)c1-c1ccc(Cl)cc1 | > 56.1 µM | 37.5 µM | 58.6 µM | > 87.3 µM | 20.7 µM | > 40.5 µM | > 100 µM | > 48.5 | 24.5 µM | 13 µM | – | – | – | – | – | – | – | – | – | –
